Reference: patent US20180008573A1, “METHODS AND COMPOSITIONS FOR REDUCING DAMAGE ASSOCIATED WITH OXIDATIVE PHOSPHORYLATION” (USANA Health Sciences, Inc., priority 2016, published 2018)

Key:
C. elegans strain CB5586 = experiment: C. elegans phenotypic lifespan screening (Kaplan-Meier, Log-Rank, Fisher's Exact Test); assay type: in vivo; conditions: for restricted mean lifespan, # of Days: DMSO control 13.23
Procedure: Dilutions of the test formulations were applied to individual populations of C. elegans and the lifespan of each population was monitored. Any changes in the lifespan of an individual population compared to a control population were recorded and correlated to the respective test formulation (N356 or N357) and the respective dilution (0.1 mg/ml, 1 mg/ml, and 10 mg/ml).
The […] and N357 formulations were each prepared as individual 100 mg/ml stock solutions in dimethyl sulfoxide (DMSO). Serial dilutions of each stock solution were then prepared at 0.1 mg/ml, 1 mg/ml, and 10 mg/ml in DMSO. Control solutions of DMSO only were also prepared. Synchronous aged adult populations of C.elegans strain CB5586 worms were prepared. The CB5586 strain comprises a pharyngeal GFP (green fluorescent protein) tag and a mutation in the bus-5 gene. The pharyngeal GFP tag allows for fluorescent images of the worm populations to be taken. The mutation in the bus-5 gene causes the loss of normal cuticle antigens that permits the cuticle of the worms to become permeable to the test formulations and allow direct uptake of the test formulations to avoid interaction of the test formulations with protective mechanisms of the gut channel. Each serial dilution of each test formulation was added to a separate population of the prepared worms. The control solutions were also added to separate populations of the prepared worms. The populations of the prepared worms were then maintained on standard nematode growth media (NGM) agar plates at 20° C. with sufficient food (Escherichia coli strain OP-50).
Each worm population was then monitored by fluorescent imaging to determine the number of living and dead worms as a function of time. The fluorescent imaging was analyzed by software that recognized and counted worms based on their fluorescent intensity compared to background fluorescence. […] The ability to distinguish between living and dead worms allowed the number of living worms and cumulative number of dead worms to be monitored against time. Worm populations from a selection of fluorescent images were manually checked to verify that the software had accurately counted the number of living and dead worms.
The counts of the living and dead worms as a function of time were then analyzed for each of the worm populations and used to prepare Kaplan-Meier survival curves and associated statistics for each of the worm populations. […] The median lifespan is shown as the length of time after the last mitotic division that 50% of the test population remains viable when compared to the control population. The maximum lifespan extension is shown as the length of time after the last mitotic division that 5% of the test population remains viable when compared to the control population.
The counts of the living and dead worms as a function of time and the Kaplan-Meier survival curves and the associated statistics were then analyzed for each of the worm populations. The analysis included determining mean and median lifespan. The analysis included a non-parametric test, the Log-Rank test, that compares two survival functions for the overall lifespan assay and provides a reliable p-value summarizing the whole experiment. The analysis also included Fisher's Exact Test that calculated the significance of survival function comparisons at multiple specific time points throughout the experiment, rather than for the overall lifespan. The results of the analysis are shown below in Tables 10-17.
Phenotypic screening was carried out as described in EXAMPLE 2 for various individual compounds of the N357 formulation. […] Alpha lipoic acid was sourced from PureBulk USA as a racemic mix of R and S stereoisomers and was assigned a sample number of N198. Hesperidin was sourced from Sigma Aldrich at ≧80% purity and was assigned a sample number of N347. […]

human PPARδ = target: T1, human PPARδ (Homo sapiens, UniProt Q03181); experiment: PPARδ agonist reporter assay (Gal4 hybrid receptor, luciferase, CHO cells); assay type: cell-based
T1 construct: expressed in transfected cells; host or cells: CHO
T1 sequence (Q03181 211-439 limits assumed): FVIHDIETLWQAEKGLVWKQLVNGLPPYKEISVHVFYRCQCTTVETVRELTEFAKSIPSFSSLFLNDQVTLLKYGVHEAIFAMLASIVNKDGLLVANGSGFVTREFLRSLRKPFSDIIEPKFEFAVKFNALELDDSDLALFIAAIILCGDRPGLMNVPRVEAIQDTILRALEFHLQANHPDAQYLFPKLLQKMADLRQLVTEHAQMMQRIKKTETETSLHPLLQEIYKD

Nrf2 = target: T2, Nrf2 (Homo sapiens, UniProt Q16236); experiment: Nrf2 agonist reporter assay (native receptor, ARE-luciferase, CV1 cells); assay type: cell-based; design: comprising either the native receptor (Nrf2 and NF-κB); expressed in transfected cells; host or cells: CV1
T2 sequence (Q16236 1-605): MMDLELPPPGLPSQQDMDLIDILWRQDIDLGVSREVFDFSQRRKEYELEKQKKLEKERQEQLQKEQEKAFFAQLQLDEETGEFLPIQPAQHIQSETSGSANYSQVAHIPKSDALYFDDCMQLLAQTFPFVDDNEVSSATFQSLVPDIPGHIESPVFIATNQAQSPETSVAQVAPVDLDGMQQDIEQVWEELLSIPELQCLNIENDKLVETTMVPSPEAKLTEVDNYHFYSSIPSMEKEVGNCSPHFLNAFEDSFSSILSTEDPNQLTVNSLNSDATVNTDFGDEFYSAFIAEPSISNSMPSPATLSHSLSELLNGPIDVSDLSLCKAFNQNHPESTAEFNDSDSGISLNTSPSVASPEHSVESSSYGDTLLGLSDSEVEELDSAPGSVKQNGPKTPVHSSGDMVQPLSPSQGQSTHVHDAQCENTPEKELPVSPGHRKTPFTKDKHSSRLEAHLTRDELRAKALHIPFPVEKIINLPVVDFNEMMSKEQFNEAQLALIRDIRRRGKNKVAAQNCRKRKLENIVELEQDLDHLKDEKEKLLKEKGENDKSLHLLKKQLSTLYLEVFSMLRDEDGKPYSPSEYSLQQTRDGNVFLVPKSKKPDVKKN

SMILES: O=C(O)CCCCC1CCSS1 (racemic) [Alpha lipoic acid, alpha lipoic acid]
- Statistically Significant Result (lifespan vs. DMSO control) (C. elegans strain CB5586; 0.1 mg/ml): Statistically significant increase
- extension of lifespan (C. elegans strain CB5586; 0.1 mg/ml): about 12.5%
- population age in days at 25% mortality (C. elegans strain CB5586; 0.1 mg/ml): 14 days
- population age in days at 50% mortality (C. elegans strain CB5586; 0.1 mg/ml): 16 days
- population age in days at 75% mortality (C. elegans strain CB5586; 0.1 mg/ml): 18 days
- effect on chronological lifespan (C. elegans strain CB5586; 0.1 mg/ml and 10 mg/ml tested): significant positive and dose dependent increase of chronological lifespan
- % Change in Mean Lifespan (C. elegans strain CB5586; 0.1 mg/ml vs. DMSO control): +12.5%
- restricted mean lifespan, # of Days (C. elegans strain CB5586; 0.1 mg/ml): 14.89 days
- Statistically Significant Result (lifespan vs. DMSO control) (C. elegans strain CB5586; 10 mg/ml): Statistically significant increase
- extension of lifespan (C. elegans strain CB5586; 10 mg/ml): about 12.5%
- population age in days at 25% mortality (C. elegans strain CB5586; 10 mg/ml): 14 days
- population age in days at 50% mortality (C. elegans strain CB5586; 10 mg/ml): 16 days
- population age in days at 75% mortality (C. elegans strain CB5586; 10 mg/ml): 18 days
- % Change in Mean Lifespan (C. elegans strain CB5586; 10 mg/ml vs. DMSO control): +12.5%
- restricted mean lifespan, # of Days (C. elegans strain CB5586; 10 mg/ml): 14.85 days
- PPARδ Fold-Activation (human PPARδ; 1.42 μg/ml active ingredient): 1.5 fold
- PPARδ Fold-Activation (human PPARδ; 4.25 μg/ml active ingredient): 1.1 fold
- PPARδ Fold-Activation (human PPARδ; 12.7 μg/ml active ingredient): 0.80 fold
- PPARδ Fold-Activation (human PPARδ; 38.23 μg/ml active ingredient): 0.52 fold
- PPARδ Fold-Activation (human PPARδ; 114.70 μg/ml active ingredient): 0.29 fold
- Nrf2 Fold-Activation (Nrf2; 1.42 μg/ml active ingredient): 1.4 fold
- Nrf2 Fold-Activation (Nrf2; 4.25 μg/ml active ingredient): 1.4 fold
- Nrf2 Fold-Activation (Nrf2; 12.7 μg/ml active ingredient): 1.5 fold
- Nrf2 Fold-Activation (Nrf2; 38.23 μg/ml active ingredient): 1.5 fold
- Nrf2 Fold-Activation (Nrf2; 114.70 μg/ml active ingredient): 2.4 fold
- agonist activity against human Nrf2 (Nrf2; at the concentrations tested): very low-level agonist activity
